Reference: publication PMC7211202 (Investigational New Drugs, 2019)

Experiment: Patient incidence of adverse events (CTCAE version 4.0)
Type: in vivo
Settings: 240-mg dose expansion
Excerpt: Each patient was monitored for 21 days for the occurrence of dose-limiting toxicities (DLTs), defined as febrile neutropenia, neutropenic infection, grade 4 neutropenia lasting >7 days, grade ≥ 3 thrombocytopenia lasting >7 days (solid tumors only), grade 3 thrombocytopenia with grade ≥ 2 bleeding (solid tumors only), grade 3 or 4 thrombocytopenia with grade > 1 bleeding (multiple myeloma only), grade 4 thrombocytopenia (solid tumors only), or grade 4 thrombocytopenia lasting >14 days (multiple myeloma only), or as grade ≥ 3 nausea, vomiting, or diarrhea after support; grade 3 fatigue lasting >7 days; any other grade ≥ 3 adverse event (AE); grade ≥ 3 kidney injury (multiple myeloma only), or treatment-related AEs not returning to grade ≤ 1 (solid tumors only) per Common Terminology Criteria for Adverse Events (CTCAE), version 4.0. The MTD was defined as the maximum dose, at which the probability of a DLT was ≤25% in Part 1A and ≤ 33% in Parts 1B and 1C. Treatment continued until disease progression, intolerable toxicity, or withdrawal of consent.
AEs were recorded for all enrolled patients.

## CC(C)[C@@H](CS(=O)(=O)C(C)C)N1C(=O)[C@@](C)(CC(=O)O)C[C@H](c2cccc(Cl)c2)[C@H]1c1ccc(Cl)cc1 [AMG 232]
  AE resulting in treatment discontinuation: fatigue: 2 n
  AE resulting in treatment discontinuation: vomiting: 4 n
  Patients with AEs resulting in treatment discontinuation: 13 (19%) n (%)
DDLPS (n = 10)
  Patients with any serious, treatment-related AE: 0 n (%)
  Patients with any treatment-emergent AE: 9 (90) n (%)
  Patients with any treatment-emergent serious AE: 4 (40) n (%)
  Patients with any treatment-related AE: 9 (90) n (%)
  Patients with any treatment-related AE, Grade 3: 0 n (%)
  Patients with any treatment-related AE, Grade 4: 0 n (%)
  Patients with any treatment-related AE, Grade 5: 0 n (%)
  Serious, treatment-related AE: Dehydration (grade 3): 0 n (%)
  Serious, treatment-related AE: Diarrhea (grade 3): 0 n (%)
  Serious, treatment-related AE: Hyperamylasemia (grade 3): 0 n (%)
  Serious, treatment-related AE: Hyperlipasemia (grade 3): 0 n (%)
  Serious, treatment-related AE: Nausea (grade 3): 0 n (%)
  Serious, treatment-related AE: Pulmonary embolism (grade 3): 0 n (%)
  Serious, treatment-related AE: Vomiting (grade 3): 0 n (%)
  Treatment-related AE: Anemia: 0 n (%)
  Treatment-related AE: Asthenia: 1 (10) n (%)
  Treatment-related AE: Decrease appetite: 4 (40) n (%)
  Treatment-related AE: Diarrhea: 6 (60) n (%)
  Treatment-related AE: Dysgeusia: 1 (10) n (%)
  Treatment-related AE: Fatigue: 7 (70) n (%)
  Treatment-related AE: Nausea: 8 (80) n (%)
  Treatment-related AE: Neutropenia: 0 n (%)
  Treatment-related AE: Thrombocytopenia: 1 (10) n (%)
  Treatment-related AE: Vomiting: 2 (20) n (%)
ER + PR+ Breast (n = 8)
  Patients with any serious, treatment-related AE: 2 (25) n (%)
  Patients with any treatment-emergent AE: 8 (100) n (%)
  Patients with any treatment-emergent serious AE: 3 (38) n (%)
  Patients with any treatment-related AE: 8 (100) n (%)
  Patients with any treatment-related AE, Grade 3: 4 (50) n (%)
  Patients with any treatment-related AE, Grade 4: 0 n (%)
  Patients with any treatment-related AE, Grade 5: 0 n (%)
  Serious, treatment-related AE: Dehydration (grade 3): 0 n (%)
  Serious, treatment-related AE: Diarrhea (grade 3): 1 (13) n (%)
  Serious, treatment-related AE: Hyperamylasemia (grade 3): 0 n (%)
  Serious, treatment-related AE: Hyperlipasemia (grade 3): 0 n (%)
  Serious, treatment-related AE: Nausea (grade 3): 1 (13) n (%)
  Serious, treatment-related AE: Pulmonary embolism (grade 3): 0 n (%)
  Serious, treatment-related AE: Vomiting (grade 3): 1 (13) n (%)
  Treatment-related AE: Anemia: 0 n (%)
  Treatment-related AE: Asthenia: 1 (13) n (%)
  Treatment-related AE: Decrease appetite: 5 (63) n (%)
  Treatment-related AE: Diarrhea: 7 (88) n (%)
  Treatment-related AE: Dysgeusia: 2 (25) n (%)
  Treatment-related AE: Fatigue: 3 (38) n (%)
  Treatment-related AE: Nausea: 6 (75) n (%)
  Treatment-related AE: Neutropenia: 0 n (%)
  Treatment-related AE: Thrombocytopenia: 0 n (%)
  Treatment-related AE: Vomiting: 6 (75) n (%)
ER + PR–Breast (n = 4)
  Patients with any serious, treatment-related AE: 0 n (%)
  Patients with any treatment-emergent AE: 4 (100) n (%)
  Patients with any treatment-emergent serious AE: 1 (25) n (%)
  Patients with any treatment-related AE: 4 (100) n (%)
  Patients with any treatment-related AE, Grade 3: 1 (25) n (%)
  Patients with any treatment-related AE, Grade 4: 0 n (%)
  Patients with any treatment-related AE, Grade 5: 0 n (%)
  Serious, treatment-related AE: Dehydration (grade 3): 0 n (%)
  Serious, treatment-related AE: Diarrhea (grade 3): 0 n (%)
  Serious, treatment-related AE: Hyperamylasemia (grade 3): 0 n (%)
  Serious, treatment-related AE: Hyperlipasemia (grade 3): 0 n (%)
  Serious, treatment-related AE: Nausea (grade 3): 0 n (%)
  Serious, treatment-related AE: Pulmonary embolism (grade 3): 0 n (%)
  Serious, treatment-related AE: Vomiting (grade 3): 0 n (%)
  Treatment-related AE: Anemia: 1 (25) n (%)
  Treatment-related AE: Asthenia: 1 (25) n (%)
  Treatment-related AE: Decrease appetite: 3 (75) n (%)
  Treatment-related AE: Diarrhea: 4 (100) n (%)
  Treatment-related AE: Dysgeusia: 0 n (%)
  Treatment-related AE: Fatigue: 0 n (%)
  Treatment-related AE: Nausea: 3 (75) n (%)
  Treatment-related AE: Neutropenia: 0 n (%)
  Treatment-related AE: Thrombocytopenia: 0 n (%)
  Treatment-related AE: Vomiting: 2 (50) n (%)
GBM (n = 10)
  Patients with any serious, treatment-related AE: 1 (10) n (%)
  Patients with any treatment-emergent AE: 10 (100) n (%)
  Patients with any treatment-emergent serious AE: 7 (70) n (%)
  Patients with any treatment-related AE: 10 (100) n (%)
  Patients with any treatment-related AE, Grade 3: 4 (40) n (%)
  Patients with any treatment-related AE, Grade 4: 0 n (%)
  Patients with any treatment-related AE, Grade 5: 0 n (%)
  Serious, treatment-related AE: Dehydration (grade 3): 0 n (%)
  Serious, treatment-related AE: Diarrhea (grade 3): 0 n (%)
  Serious, treatment-related AE: Hyperamylasemia (grade 3): 1 (10) n (%)
  Serious, treatment-related AE: Hyperlipasemia (grade 3): 1 (10) n (%)
  Serious, treatment-related AE: Nausea (grade 3): 0 n (%)
  Serious, treatment-related AE: Pulmonary embolism (grade 3): 0 n (%)
  Serious, treatment-related AE: Vomiting (grade 3): 0 n (%)
  Treatment-related AE: Anemia: 0 n (%)
  Treatment-related AE: Asthenia: 0 n (%)
  Treatment-related AE: Decrease appetite: 1 (10) n (%)
  Treatment-related AE: Diarrhea: 5 (50) n (%)
  Treatment-related AE: Dysgeusia: 1 (10) n (%)
  Treatment-related AE: Fatigue: 6 (60) n (%)
  Treatment-related AE: Nausea: 4 (40) n (%)
  Treatment-related AE: Neutropenia: 2 (20) n (%)
  Treatment-related AE: Thrombocytopenia: 2 (20) n (%)
  Treatment-related AE: Vomiting: 3 (30) n (%)
Multiple Myeloma (n = 10)
  Patients with any serious, treatment-related AE: 2 (20) n (%)
  Patients with any treatment-emergent AE: 10 (100) n (%)
  Patients with any treatment-emergent serious AE: 4 (40) n (%)
  Patients with any treatment-related AE: 10 (100) n (%)
  Patients with any treatment-related AE, Grade 3: 6 (60) n (%)
  Patients with any treatment-related AE, Grade 4: 3 (30) n (%)
  Patients with any treatment-related AE, Grade 5: 0 n (%)
  Serious, treatment-related AE: Dehydration (grade 3): 0 n (%)
  Serious, treatment-related AE: Diarrhea (grade 3): 0 n (%)
  Serious, treatment-related AE: Hyperamylasemia (grade 3): 0 n (%)
  Serious, treatment-related AE: Hyperlipasemia (grade 3): 0 n (%)
  Serious, treatment-related AE: Nausea (grade 3): 0 n (%)
  Serious, treatment-related AE: Pulmonary embolism (grade 3): 0 n (%)
  Serious, treatment-related AE: Vomiting (grade 3): 2 (20) n (%)
  Treatment-related AE: Anemia: 1 (10) n (%)
  Treatment-related AE: Asthenia: 4 (40) n (%)
  Treatment-related AE: Decrease appetite: 4 (40) n (%)
  Treatment-related AE: Diarrhea: 7 (70) n (%)
  Treatment-related AE: Dysgeusia: 2 (20) n (%)
  Treatment-related AE: Fatigue: 2 (20) n (%)
  Treatment-related AE: Nausea: 4 (40) n (%)
  Treatment-related AE: Neutropenia: 3 (30) n (%)
  Treatment-related AE: Thrombocytopenia: 3 (30) n (%)
  Treatment-related AE: Vomiting: 4 (40) n (%)
Other Solid (n = 16)
  Patients with any serious, treatment-related AE: 0 n (%)
  Patients with any treatment-emergent AE: 16 (100) n (%)
  Patients with any treatment-emergent serious AE: 5 (31) n (%)
  Patients with any treatment-related AE: 14 (88) n (%)
  Patients with any treatment-related AE, Grade 3: 4 (25) n (%)
  Patients with any treatment-related AE, Grade 4: 2 (13) n (%)
  Patients with any treatment-related AE, Grade 5: 0 n (%)
  Serious, treatment-related AE: Dehydration (grade 3): 0 n (%)
  Serious, treatment-related AE: Diarrhea (grade 3): 0 n (%)
  Serious, treatment-related AE: Hyperamylasemia (grade 3): 0 n (%)
